Each block holds one molecule with its values, some of them ahead of it.
What was measured:
[1] = tested on: phosphorus and calcium levels in the urine of rats; assay: Urinary excretion of phosphate and calcium in rats (16 h overnight urine); format: in vivo, rat; conditions: rats, oral gavage, 16 h post-dose
Rat NHE3 = biological target: T1, Rat NHE3 (Rattus norvegicus, UniProt P26433); assay: Cell-based NHE3 activity under prompt conditions (OK cells, BCECF pH recovery), rat NHE3; conditions: prompt conditions
T1 construct: expressed in transfected cells; host or cells: Opossum kidney (OK) cells (ATCC), electroporation
Method in brief: (§1)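 OK cells electroporated with rat or human NHE3 were loaded with 5 μM BCECF-AM in NH4Cl-HEPES (pH 7.4) for 30 min at room temperature, then acid-loaded 10 min in Na+-free choline-HEPES.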

[2] = tested on: absorption of sodium from the intestinal lumen; assay: Inhibition of intestinal sodium absorption: urinary sodium (uNa) 16 h after single oral dose in rats; format: in vivo, rat; conditions: oral gavage, 16 h post-dose
Method in brief: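 Eight-week-old Sprague-Dawley rats (n=6) given single oral gavage of compound or water vehicle in the late afternoon, then kept in metabolic cages with chow and water ad libitum. Urine collected over 16 h; sodium quantified by ion chromatography and expressed as % of vehicle mean, compared by one-way ANOVA with Dunnett's test.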

Human NHE3 = biological target: T2, Human NHE3 (Homo sapiens, UniProt P48764); assay: Cell-based NHE3 activity under prompt conditions (OK cells, BCECF pH recovery), human NHE3; conditions: prompt conditions
T2 construct: expressed in transfected cells; host or cells: Opossum kidney (OK) cells (ATCC), electroporation
T2 sequence (P48764 26-834): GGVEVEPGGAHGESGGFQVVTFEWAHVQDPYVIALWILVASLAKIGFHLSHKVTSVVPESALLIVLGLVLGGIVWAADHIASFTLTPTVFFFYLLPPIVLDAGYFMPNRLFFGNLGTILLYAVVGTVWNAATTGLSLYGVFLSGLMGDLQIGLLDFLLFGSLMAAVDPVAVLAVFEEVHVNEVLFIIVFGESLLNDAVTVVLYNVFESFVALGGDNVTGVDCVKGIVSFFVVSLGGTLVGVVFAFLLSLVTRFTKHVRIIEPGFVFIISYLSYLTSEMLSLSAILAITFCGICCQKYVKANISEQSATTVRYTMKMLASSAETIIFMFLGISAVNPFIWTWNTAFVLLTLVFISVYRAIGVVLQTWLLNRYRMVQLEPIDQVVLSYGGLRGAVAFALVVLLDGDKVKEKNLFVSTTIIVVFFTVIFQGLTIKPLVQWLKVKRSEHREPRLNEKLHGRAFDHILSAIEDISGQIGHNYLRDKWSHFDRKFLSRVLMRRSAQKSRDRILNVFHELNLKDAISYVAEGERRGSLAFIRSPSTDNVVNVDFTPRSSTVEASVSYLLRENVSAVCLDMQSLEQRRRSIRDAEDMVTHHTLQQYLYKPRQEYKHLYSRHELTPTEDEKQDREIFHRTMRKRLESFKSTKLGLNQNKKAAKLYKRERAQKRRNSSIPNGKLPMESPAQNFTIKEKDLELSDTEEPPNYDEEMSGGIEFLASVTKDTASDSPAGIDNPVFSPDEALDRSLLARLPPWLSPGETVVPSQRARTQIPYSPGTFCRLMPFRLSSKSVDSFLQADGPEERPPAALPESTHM
Method in brief: as §1

[3] = tested on: absorption of sodium from the intestinal lumen; assay: Fecal form score (FFS) 16 h after oral dose in rats; format: in vivo, rat; conditions: oral gavage, 16 h post-dose, scale 1-5
Method in brief: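 Eight-week-old Sprague-Dawley rats (n=6) dosed by oral gavage with compound or water vehicle between 4 and 5 PM, then housed in metabolic cages with food and water ad libitum. At 16 h, fecal form scored 1 (normal pellet) to 5 (liquid streams) by two observers; group mean reported.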

T1 sequence (P26433 29-831): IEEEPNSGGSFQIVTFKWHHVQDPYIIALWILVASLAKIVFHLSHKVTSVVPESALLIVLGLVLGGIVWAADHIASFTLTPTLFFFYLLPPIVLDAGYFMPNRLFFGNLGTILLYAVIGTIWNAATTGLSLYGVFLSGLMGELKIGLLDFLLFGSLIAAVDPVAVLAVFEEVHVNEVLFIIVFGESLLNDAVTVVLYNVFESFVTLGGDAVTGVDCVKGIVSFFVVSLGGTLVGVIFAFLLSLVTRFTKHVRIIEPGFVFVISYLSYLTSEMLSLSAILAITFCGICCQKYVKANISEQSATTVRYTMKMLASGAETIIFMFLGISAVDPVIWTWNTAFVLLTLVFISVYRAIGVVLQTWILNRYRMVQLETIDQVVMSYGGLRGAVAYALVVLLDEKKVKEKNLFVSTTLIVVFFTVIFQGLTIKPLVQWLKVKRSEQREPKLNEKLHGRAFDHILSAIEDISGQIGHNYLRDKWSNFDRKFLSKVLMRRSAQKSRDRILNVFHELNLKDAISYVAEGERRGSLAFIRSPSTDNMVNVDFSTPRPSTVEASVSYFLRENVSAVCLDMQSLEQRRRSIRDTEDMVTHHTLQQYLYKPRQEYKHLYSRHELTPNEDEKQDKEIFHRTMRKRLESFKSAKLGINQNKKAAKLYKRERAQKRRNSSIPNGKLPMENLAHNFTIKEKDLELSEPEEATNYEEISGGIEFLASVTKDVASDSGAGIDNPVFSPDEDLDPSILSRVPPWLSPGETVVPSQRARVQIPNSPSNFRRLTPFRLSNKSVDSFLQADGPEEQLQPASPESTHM

Prompt Rat NHE3 pIC50 (Rat NHE3): 8.60
Prompt Human NHE3 pIC50 (Human NHE3): 8.53
Compound: CN(C)[C@H]1Cc2c(Cl)cc(Cl)cc2[C@@H]1Oc1ccc(S(=O)(=O)NCCOCCOCCNC(=O)CCC(C)(N)CCC(=O)NCCOCCOCCNS(=O)(=O)c2ccc(O[C@H]3c4cc(Cl)cc(Cl)c4C[C@@H]3N(C)C)cc2)cc1 [compound 174]
Urine P % of control ([1]; dose 3 mg/kg): 55%
Urine P % of control ([1]; dose 10 mg/kg): 61%
Urine Na % of control ([2]; dose 3 mg/kg): 37%
Urine Na % of control ([2]; dose 10 mg/kg): 49%
Fecal Form Score average ([3]; dose 3 mg/kg): 1
Fecal Form Score average ([3]; dose 10 mg/kg): 1

Prompt Rat NHE3 pIC50 (Rat NHE3): 7.10
Prompt Human NHE3 pIC50 (Human NHE3): 7.33
Compound: CN1Cc2c(Cl)cc(Cl)cc2[C@H](c2cccc(S(=O)(=O)NCCOCCOCCNC(=O)CCC(CCC(=O)NCCOCCOCCNS(=O)(=O)c3cccc([C@@H]4CN(C)Cc5c(Cl)cc(Cl)cc54)c3)(CCC(=O)NCCOCCOCCNS(=O)(=O)c3cccc([C@@H]4CN(C)Cc5c(Cl)cc(Cl)cc54)c3)NC(=O)NC(CO)CO)c2)C1 [compound 178]
Urine P % of control ([1]; dose 3 mg/kg): 46%
Urine Na % of control ([2]; dose 3 mg/kg): 18%
Fecal Form Score average ([3]; dose 3 mg/kg): 3

Prompt Rat NHE3 pIC50 (Rat NHE3): 8.00
Prompt Human NHE3 pIC50 (Human NHE3): 7.77
Compound: CN(C)[C@H]1Cc2c(Cl)cc(Cl)cc2[C@@H]1Oc1ccc(S(=O)(=O)NCCOCCOCCNC(=O)CCC(C)(CCC(=O)NCCOCCOCCNS(=O)(=O)c2ccc(O[C@H]3c4cc(Cl)cc(Cl)c4C[C@@H]3N(C)C)cc2)NC(=O)CCC(=O)O)cc1 [compound 179]
Urine P % of control ([1]; dose 3 mg/kg): 66%
Urine Na % of control ([2]; dose 3 mg/kg): 40%
Fecal Form Score average ([3]; dose 3 mg/kg): 1

The remaining lines, values behind:

Compound: CN1Cc2c(Cl)cc(Cl)cc2[C@H](c2cccc(S(=O)(=O)NCCOCCOCCN(C)C(=O)CCC(N)(CCC(=O)N(C)CCOCCOCCNS(=O)(=O)c3cccc([C@@H]4CN(C)Cc5c(Cl)cc(Cl)cc54)c3)CCC(=O)N(C)CCOCCOCCNS(=O)(=O)c3cccc([C@@H]4CN(C)Cc5c(Cl)cc(Cl)cc54)c3)c2)C1 [compound 175]
Urine P % of control ([1]; dose 3 mg/kg): 48%
Prompt Rat NHE3 pIC50 (Rat NHE3): 7.80
Urine Na % of control ([2]; dose 3 mg/kg): 102%
Prompt Human NHE3 pIC50 (Human NHE3): 7.40
Fecal Form Score average ([3]; dose 3 mg/kg): 1

Compound: CN(C)CC(=O)NC(CCC(=O)N(C)CCOCCOCCNS(=O)(=O)c1cccc([C@@H]2CN(C)Cc3c(Cl)cc(Cl)cc32)c1)(CCC(=O)N(C)CCOCCOCCNS(=O)(=O)c1cccc([C@@H]2CN(C)Cc3c(Cl)cc(Cl)cc32)c1)CCC(=O)N(C)CCOCCOCCNS(=O)(=O)c1cccc([C@@H]2CN(C)Cc3c(Cl)cc(Cl)cc32)c1 [compound 176]
Urine P % of control ([1]; dose 3 mg/kg): 92%
Prompt Rat NHE3 pIC50 (Rat NHE3): 7.50
Urine Na % of control ([2]; dose 3 mg/kg): 73%
Prompt Human NHE3 pIC50 (Human NHE3): 7.40
Fecal Form Score average ([3]; dose 3 mg/kg): 1

Compound: CN1Cc2c(Cl)cc(Cl)cc2[C@H](c2cccc(S(=O)(=O)NCCOCCOCCN(C)C(=O)CCC(CCC(=O)N(C)CCOCCOCCNS(=O)(=O)c3cccc([C@@H]4CN(C)Cc5c(Cl)cc(Cl)cc54)c3)(CCC(=O)N(C)CCOCCOCCNS(=O)(=O)c3cccc([C@@H]4CN(C)Cc5c(Cl)cc(Cl)cc54)c3)NC(=O)COCC(=O)O)c2)C1 [compound 177]
Urine P % of control ([1]; dose 3 mg/kg): 45%
Prompt Rat NHE3 pIC50 (Rat NHE3): 7.70
Urine Na % of control ([2]; dose 3 mg/kg): 52%
Prompt Human NHE3 pIC50 (Human NHE3): 7.80
Fecal Form Score average ([3]; dose 3 mg/kg): 2

Compound: CN1Cc2c(Cl)cc(Cl)cc2[C@H](c2cccc(S(=O)(=O)NCCOCCOCCNC(=O)NCCCCNC(=O)NCCOCCOCCNS(=O)(=O)c3cccc([C@@H]4CN(C)Cc5c(Cl)cc(Cl)cc54)c3)c2)C1 [compound 180]
Urine P % of control ([1]; dose 0.03 mg/kg): 80%
Urine P % of control ([1]; dose 0.1 mg/kg): 82%
Urine P % of control ([1]; dose 0.3 mg/kg): 75%
Urine P % of control ([1]; dose 1 mg/kg): 69%
Urine P % of control ([1]; dose 3 mg/kg): 38%
Prompt Rat NHE3 pIC50 (Rat NHE3): 8.03
Urine Na % of control ([2]; dose 0.03 mg/kg): 67%
Urine Na % of control ([2]; dose 0.1 mg/kg): 45%
Urine Na % of control ([2]; dose 0.3 mg/kg): 33%
Urine Na % of control ([2]; dose 1 mg/kg): 15%
Urine Na % of control ([2]; dose 3 mg/kg): 53%
Prompt Human NHE3 pIC50 (Human NHE3): 8.30
Fecal Form Score average ([3]; dose 0.03 mg/kg): 1
Fecal Form Score average ([3]; dose 0.1 mg/kg): 1
Fecal Form Score average ([3]; dose 0.3 mg/kg): 3
Fecal Form Score average ([3]; dose 1 mg/kg): 3
Fecal Form Score average ([3]; dose 3 mg/kg): 4
